Measurements: US12116343B2, “Inhibitors of APOL1 and methods of using same” (Vertex Pharmaceuticals Incorporated, priority 2020, dated 2024)
pIC50: −log10 of the molar value. Where two headings read alike, the source gives them in different places.

Target: T1, G1 APOL1 (Homo sapiens, UniProt O14791, I384M/S342G)
T1 construct: expressed in transfected cells
T1 sequence (O14791 28-398 S342G/I384M): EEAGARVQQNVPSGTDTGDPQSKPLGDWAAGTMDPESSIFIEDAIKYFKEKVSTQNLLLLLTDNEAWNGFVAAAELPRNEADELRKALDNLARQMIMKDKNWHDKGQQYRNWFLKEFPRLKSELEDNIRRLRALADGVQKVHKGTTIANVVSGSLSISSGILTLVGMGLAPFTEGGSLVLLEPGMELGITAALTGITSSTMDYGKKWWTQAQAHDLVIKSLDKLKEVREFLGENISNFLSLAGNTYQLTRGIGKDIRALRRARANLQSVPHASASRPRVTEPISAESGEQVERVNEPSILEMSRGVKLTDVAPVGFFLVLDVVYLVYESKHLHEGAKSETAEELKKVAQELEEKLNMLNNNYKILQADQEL
Experiment: Acute APOL1 Thallium Assay with inducible stable clones of HEK 293 cells
Type: cell-based
Procedure, shortened: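 Readout: Tl+-triggered fluorescence, FLIPR, reflecting potassium flux through APOL1 pores after cells take up an AM-ester thallium indicator. Cells: HEK T-Rex stable clone G1 DC3.25, APOL1 G1 induced by tetracycline, seeded 26000 per well.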

[1] = HEK 293 T-Rex cells expressing G1 APOL1, read-out: Thallium Assay (IC50)

Compound | pIC50 [1] | other results
Cn1cnc(CNC(=O)[C@H]2C[C@H](c3c(-c4ccc(F)cc4)[nH]c4c(F)cc(F)cc43)C2)c1 [Compound 48] | > 6.60 | –
CCOCC1(CNC(=O)[C@H]2C[C@H](c3c(-c4ccc(F)cc4)[nH]c4c(F)cc(F)cc43)C2)CC1 [Compound 55] | < 6.00 | –
CC(N)(C(=O)NC(=O)[C@H]1C[C@H](c2c(-c3ccc(F)cc3)[nH]c3c(F)cc(F)cc32)C1)C(F)(F)F (some centres unmarked) [Compound 60] | < 6.00 | –
CC(=O)NC1CCCN(C(=O)[C@H]2C[C@H](c3c(-c4ccc(F)cc4)[nH]c4c(F)cc(F)cc43)C2)C1 (some centres unmarked) [Compound 91] | < 6.00 | –
CC(NC(=O)[C@H]1C[C@H](c2c(-c3ccc(F)cc3)[nH]c3c(F)cc(F)cc32)C1)c1ccn[nH]1 (mixture of isomers) [Compound 81] | 6.00 to 6.60 | –
NC(=O)[C@@H]1CCCN1C(=O)[C@H]1C[C@H](c2c(-c3ccc(F)cc3)[nH]c3c(F)cc(F)cc32)C1 [Compound 88] | < 6.00 | –
NCC(O)CNC(=O)[C@H]1C[C@H](c2c(-c3ccc(F)cc3)[nH]c3c(F)cc(F)cc32)C1 (some centres unmarked) [Compound 3] | 6.00 to 6.60 | –
O=C([C@H]1C[C@H](c2c(-c3ccc(F)cc3)[nH]c3c(F)cc(F)cc32)C1)N1CCC(O)(O)CC1 [Compound 127] | – | pIC50 (Thallium Assay (IC50), HEK 293 T-Rex cells expressing G1 APOL1): < 6.00
CC(NC(=O)[C@H]1C[C@H](c2c(-c3ccc(F)cc3)[nH]c3c(F)cc(F)cc32)C1)c1ccn(C)n1 (mixture of isomers) [Compound 75] | 6.00 to 6.60 | –
CC1(O)CN(C(=O)[C@H]2C[C@H](c3c(-c4ccc(F)cc4)[nH]c4c(F)cc(F)cc43)C2)C1 [Compound 74] | 6.00 to 6.60 | –
O=C(NCCO)[C@H]1C[C@H](c2c(-c3ccc(F)cc3)[nH]c3c(F)cc(F)cc32)C1 [Compound 46, 3-[5,7-difluoro-2-(4-fluorophenyl)-1H-indol-3-yl]-N-(2-hydroxyethyl)cyclobutanecarboxamide] | > 6.60 | –
NC(=O)C1(NC(=O)[C@H]2C[C@H](c3c(-c4ccc(F)cc4)[nH]c4c(F)cc(F)cc43)C2)CC1 [Compound 56] | 6.00 to 6.60 | –
O=C([C@H]1C[C@H](c2c(-c3ccc(F)cc3)[nH]c3c(F)cc(F)cc32)C1)N1CCCCC1CCO (some centres unmarked) [Compound 94] | < 6.00 | –
O=C([C@H]1C[C@H](c2c(-c3ccc(F)cc3)[nH]c3c(F)cc(F)cc32)C1)N(CCO)C1CC1 [Compound 52] | 6.00 to 6.60 | –
CC(NC(=O)[C@H]1C[C@H](c2c(-c3ccc(F)cc3)[nH]c3c(F)cc(F)cc32)C1)c1ccnn1C (mixture of isomers) [Compound 76] | < 6.00 | –
Cn1ccc(CNC(=O)[C@H]2C[C@H](c3c(-c4ccc(F)cc4)[nH]c4c(F)cc(F)cc43)C2)n1 [Compound 71] | 6.00 to 6.60 | –
CN1CCN(C(=O)CNC(=O)[C@H]2C[C@H](c3c(-c4ccc(F)cc4)[nH]c4c(F)cc(F)cc43)C2)CC1 [Compound 67] | < 6.00 | –
O=C1NCC[C@H]1NC(=O)[C@H]1C[C@H](c2c(-c3ccc(F)cc3)[nH]c3c(F)cc(F)cc32)C1 [Compound 45] | 6.00 to 6.60 | –
O=C(NCC1(O)CCCCC1)[C@H]1C[C@H](c2c(-c3ccc(F)cc3)[nH]c3c(F)cc(F)cc32)C1 [Compound 80] | < 6.00 | –
O=C(NC(CO)CF)[C@H]1C[C@H](c2c(-c3ccc(F)cc3)[nH]c3c(F)cc(F)cc32)C1 (some centres unmarked) [Compound 78] | > 6.60 | –
COCC1(NC(=O)[C@H]2C[C@H](c3c(-c4ccc(F)cc4)[nH]c4c(F)cc(F)cc43)C2)CC1 [Compound 54] | > 6.60 | –
NC(=O)CC1CC(c2c(-c3ccc(F)cc3)[nH]c3c(F)cc(F)cc23)C1 (centres unmarked) [Compound 455] | – | pIC50 (Table 24, Compounds 287 to 465, read-out: Thallium Assay (IC50)): > 6.60
CC(C)(O)C1CN(C(=O)[C@H]2C[C@H](c3c(-c4ccc(F)cc4)[nH]c4c(F)cc(F)cc43)C2)C1 [Compound 86] | < 6.00 | –
CN(C(=O)[C@H]1C[C@H](c2c(-c3ccc(F)cc3)[nH]c3c(F)cc(F)cc32)C1)C1(CO)CC1 [Compound 58] | 6.00 to 6.60 | –
O=C(NC1(CCO)CC1)[C@H]1C[C@H](c2c(-c3ccc(F)cc3)[nH]c3c(F)cc(F)cc32)C1 [Compound 59] | 6.00 to 6.60 | –
C[C@H](O)CNC(=O)[C@H]1C[C@H](c2c(-c3ccc(F)cc3)[nH]c3c(F)cc(F)cc32)C1 [Compound 82] | 6.00 to 6.60 | –
